One data set has as its system human red blood cells. The data set is described as follows: Hemolysis assay. Type of data set: cell-based. Conditions: 1 hour at 37° C., versus untreated controls. Here is the method: The hemolytic activity of BmKn2, dBmKn2, Kn2-7, dKn2-7, and melittin was assessed using human red blood cells (RBCs). The RBCs were prepared from human whole blood (BioreclamationIVT, Westbury, N.Y., USA) according to a previous report (Evans et al, J. Vis. Exp. (73), 50166, doi:10.3791/50166 (2013)). In brief, human whole blood was centrifuged, and the RBCs were washed with PBS 3-4 times and then diluted 1:20 of the original volume in PBS. Peptides at various concentrations from 0-400 μg/mL in PBS were mixed with an equal volume of the diluted RBCs in a 96-well microtiter plate and allowed to incubate for 1 hour at 37° C. The plate was then centrifuged at 500 g for 5 minutes and 100 μL of the supernatant was transferred to a 96-well, transparent, flat-bottomed plate. Sample absorbances were read at 490 nm using a BioTek Synergy HT plate reader (BioTek, Winooski, Vt.). PBS was used as a negative control (blank), and 1% Triton X-100 was used as a positive control for 100% hemolysis. The percent hemolysis for the unknown samples was calculated according to the following equation: […]

Data set [1] is described as follows: Stability of peptides in human serum (LC-MS). The format is in vitro ADME. Conditions: 37° C.; for remaining at 24 h, 50 μg/mL: 25% human serum (v/v), pH 7, 25% human serum in RPMI 1640, after 24 hours, read-out: peptide remaining, percent of t0; for reduction of peptide amount: 100% culture medium (RPMI 1640), 24 hours, 50 μg/mL. On the procedure:
The stability of Kn2-7 and dKn2-7 (50 μg/mL) were studied in 25% human serum (v/v) (BioreclamationIVT, Westbury, N.Y., USA) in 1640 RPMI media (made with 165 mM MOPS, pH 7.0) or in 100% 1640 RPMI medium at 37° C. (H. Jenssen, S. I. Aspmo, Serum stability of peptides, Peptide-Based Drug Design (2008) 177-186.) At predetermined time points, 100 μL aliquots of each solution was removed and thoroughly mixed with 200 μL of 96% ethanol. This was incubated on ice for 15 minutes followed by centrifugation at 10,000 g for 5 minutes to pellet the precipitated proteins. The supernatant (200 μL) was carefully removed, spiked with peptide 1018 (VRLIVAVRIWRR; SEQ ID NO. 3) at 1 μg/mL as the internal standard, and stored at −20° C. prior to liquid chromatography-mass spectrometry (LC/MS) analysis. Peptide 1018 is a synthetic peptide derived from bactenecin, a bovine neutrophil host defense peptide. (Mansour, S. C., et al. (2015) J. Pept. Sci., 21, 323-329. doi: 10.1002/psc.2708. The peptide sequence was synthesized by Genemed Synthesis Inc. (San Antonio, Tex.).
Liquid chromatography was performed on a Shimadzu HPLC system (Shimadzu Scientific Instruments, Inc., Columbia, Md.). A 10-μl aliquot of the sample was injected into an Agilent ZORBAX Eclipse XDB 80 Å C18 (2.1×50 mm, 5 μm) column (Agilent, Santa Clara, Calif.) held at 40° C. Mass spectrometric analysis was carried out on an AB Sciex API 4000 mass spectrometer (AB Sciex, Framingham, Mass.) with an electrospray ionization (ESI) interface and triple quadrupole mass analyzer. The peak areas of Kn2-7 and dKn2-7 on the LC-MS chromatograms were standardized to the peak area for peptide 1018.

The subject of another data set is C. albicans. Also noted: unit not given beside the values. Conditions: compared with dKn2-7; cited from earlier work.

Square brackets hold non-standard residues; d marks the D form. Ends that are not written are not given here. Peptide text beside a SMILES is read from it.

Take `CC[C@@H](C)[C@@H](NC(=O)[C@H](N)Cc1ccccc1)C(=O)NCC(=O)N[C@H](C)C(=O)N[C@@H](C(=O)N[C@H](C)C(=O)N[C@H](CCCNC(=N)N)C(=O)N[C@H](CC(C)C)C(=O)N[C@H](CC(C)C)C(=O)N[C@H](CO)C(=O)N[C@H](CCCCN)C(=O)N[C@@H](C(=O)N[C@H](Cc1ccccc1)C(=O)O)[C@H](C)CC)[C@H](C)CC` [dBmKn2] (H-[dF][dI]G[dA][dI][dA][dR][dL][dL][dS][dK][dI][dF]-OH; N-terminus and C-terminus assumed): the “concentration at which a significant increase in hemolysis starts” value in the data set on human red blood cells is 100 µg/mL.

Regarding `CC[C@@H](C)[C@@H](NC(=O)[C@H](N)Cc1ccccc1)C(=O)N[C@H](CCCCN)C(=O)N[C@H](CCCNC(=N)N)C(=O)N[C@@H](C(=O)N[C@H](C)C(=O)N[C@H](CCCNC(=N)N)C(=O)N[C@H](CC(C)C)C(=O)N[C@H](CC(C)C)C(=O)N[C@H](CCCNC(=N)N)C(=O)N[C@H](CCCCN)C(=O)N[C@@H](C(=O)N[C@H](Cc1ccccc1)C(=O)O)[C@H](C)CC)[C@H](C)CC` [dKn2-7] (H-[dF][dI][dK][dR][dI][dA][dR][dL][dL][dR][dK][dI][dF]-OH; N-terminus and C-terminus assumed), in data set [1], the fraction remaining at 24 h, 50 μg/mL is roughly 43% and the “reduction of peptide amount” value was “about 20%”. In addition, the “concentration at which a significant increase in hemolysis starts” value in the data set with human red blood cells was determined as 200 µg/mL.

Take `CC[C@H](C)[C@H](NC(=O)CN)C(=O)NCC(=O)N[C@@H](C)C(=O)N[C@H](C(=O)N[C@@H](CC(C)C)C(=O)N[C@@H](CCCCN)C(=O)N[C@H](C(=O)N[C@@H](CC(C)C)C(=O)N[C@H](C(=O)N[C@H](C(=O)NCC(=O)N[C@@H](CC(C)C)C(=O)N1CCC[C@H]1C(=O)N[C@@H](C)C(=O)N[C@@H](CC(C)C)C(=O)N[C@H](C(=O)N[C@@H](CO)C(=O)N[C@@H](Cc1c[nH]c2ccccc12)C(=O)N[C@H](C(=O)N[C@@H](CCCCN)C(=O)N[C@@H](CCCNC(=N)N)C(=O)N[C@@H](CCCCN)C(=O)N[C@@H](CCCNC(=N)N)C(=O)N[C@@H](CCC(N)=O)C(=O)N[C@@H](CCC(N)=O)C(N)=O)[C@@H](C)CC)[C@@H](C)CC)[C@@H](C)O)[C@@H](C)O)C(C)C)C(C)C` [melittin, reference compound]: the “concentration at which a significant increase in hemolysis starts” value in the data set on human red blood cells is no less than 3.125 µg/mL.

For “FIGAIARLLSKIF [BmKn2, FIGAIARLLSKIF (SEQ ID NO. 1)]”, in the data set on human red blood cells, the “concentration at which a significant increase in hemolysis starts” value was determined as 100 µg/mL.

Turning to “FIKRIARLLRKIF [Kn2-7, FIKRIARLLRKIF (SEQ ID NO. 2)]”, in data set [1], the amount remaining at 24 h, 50 μg/mL is roughly 9% and the “reduction of peptide amount” value is on record as “about 20%”. Further, the “concentration at which a significant increase in hemolysis starts” value with human red blood cells stood at 200 µg/mL.

With LL-37: well-studied LL-37 peptide, the “MIC against C. albicans, times higher than dKn2-7” value in the data set with C. albicans was roughly 3 ×.

The record behind these values is patent US11524051B2, “Methods of treating fungal infections” (United States of America as represented by the Secretary of …, priority 2017, dated 2022).
